# According to article PMC10981597 (Amino Acids, 2024):
# How the values were obtained:
# [1] = type: physicochemical; conditions: pH 7.4
# [2] = type: physicochemical; conditions: pH 6.5
# [3] = human, serum
Structure (SMILES),ANS fluorescence intensity with increasing peptide concentration (self-assembly) [1],self-assembled morphology by TEM [2],remaining at 24 h [3] [%]
CCCCCCCCCCCCCCNCCCC[C@@H]1NC(=O)CNC(=O)[C@H](CCCCNCCCCCCCCCCCCCC)NC(=O)[C@@H](N)CSSC[C@@H]2NC(=O)[C@@H]3CSSC[C@@H](C(N)=O)NC(=O)[C@H](CCCCN)NC(=O)CNC(=O)[C@H](CO)NC(=O)[C@H](CCCNC(=N)N)NC(=O)[C@H](CSSC[C@H](NC(=O)[C@H](CCCCN)NC(=O)[C@H](C)NC(=O)CNC1=O)C(=O)N[C@@H](CO)C(=O)N[C@@H](CCCNC(=N)N)C(=O)N[C@@H](CC(C)C)C(=O)N[C@@H](CCSC)C(=O)N[C@@H](Cc1ccc(O)cc1)C(=O)N[C@@H](CC(=O)O)C(=O)N3)NC(=O)[C@H](CO)NC(=O)CNC(=O)[C@H]([C@@H](C)O)NC2=O [K2-K4-MVIIA],significant increase in fluorescence intensity,nanomicellar structures,75.6
CCCCCCCCCCCCCCNCCCC[C@@H]1NC(=O)[C@@H](N)CSSC[C@@H]2NC(=O)[C@@H]3CSSC[C@@H](C(N)=O)NC(=O)[C@H](CCCCN)NC(=O)CNC(=O)[C@H](CO)NC(=O)[C@H](CCCNC(=N)N)NC(=O)[C@H](CSSC[C@H](NC(=O)[C@H](CCCCN)NC(=O)[C@H](C)NC(=O)CNC(=O)[C@H](CCCCN)NC(=O)CNC1=O)C(=O)N[C@@H](CO)C(=O)N[C@@H](CCCNC(=N)N)C(=O)N[C@@H](CC(C)C)C(=O)N[C@@H](CCSC)C(=O)N[C@@H](Cc1ccc(O)cc1)C(=O)N[C@@H](CC(=O)O)C(=O)N3)NC(=O)[C@H](CO)NC(=O)CNC(=O)[C@H]([C@@H](C)O)NC2=O [K2-MVIIA],significant increase in fluorescence intensity,nanomicellar structures,78.7
"CSCC[C@@H]1NC(=O)[C@H](CC(C)C)NC(=O)[C@H](CCCNC(=N)N)NC(=O)[C@H](CO)NC(=O)[C@@H]2CSSC[C@@H]3NC(=O)[C@H](CO)NC(=O)CNC(=O)[C@H]([C@@H](C)O)NC(=O)[C@H](CSSC[C@H](N)C(=O)N[C@@H](CCCCN)C(=O)NCC(=O)N[C@@H](CCCCN)C(=O)NCC(=O)N[C@@H](C)C(=O)N[C@@H](CCCCN)C(=O)N2)NC(=O)[C@H](CSSC[C@@H](C(N)=O)NC(=O)[C@H](CCCCN)NC(=O)CNC(=O)[C@H](CO)NC(=O)[C@H](CCCNC(=N)N)NC3=O)NC(=O)[C@H](CC(=O)O)NC(=O)[C@H](Cc2ccc(O)cc2)NC1=O [MVIIA, ω-conotoxin MVIIA, reference compound]",almost no increase in fluorescence intensity,oligomers,–
